What was measured:
Assay in all cases: MIC, broth microdilution
[1] = tested on: E. faecalis GC 2242; details: Enterococcus faecalis
[2] = tested on: E. coli GC 4559; details: Escherichia coli
[3] = tested on: E. coli GC 2235; details: Escherichia coli
[4] = tested on: c. albicans GC 3066
[5] = tested on: S. pneumoniae* GC 4465; details: Streptococcus pneumoniae
[6] = tested on: E. faecalis GC 4555; details: Enterococcus faecalis
[7] = tested on: E. coli GC 6465; details: Escherichia coli
[8] = tested on: S. pneumoniae+ GC 4465; details: Streptococcus pneumoniae
Experimental: (§1) Antimicrobial susceptibility testing. The in vitro activities of the antibiotics are determined by the broth microdilution method as recommended by the National Committee for Clinical Laboratory Standards (NCCLS) (1). Mueller-Hinton II broth (MHBII)(BBL Cockeysville, Md.) is the medium employed in the testing procedures. Microtiter plates containing serial dilutions of each antimicrobial agent are inoculated with each organism to yield the appropriate density (10^5 CFU/ml) in a 100 μl final volume. The plates are incubated for 18-22 hours at 35° C. in ambient air.
(§2) Representative compounds were first incubated in mouse serum for an hour prior to the in vitro testing against a panel of selected gram-positive and gram-negative bacteria strains. All compounds were also pre-incubated in water for an hour prior to testing as control.

[9] = tested on: S. epidermidis GC 4935; details: Staphylococcus epidermidis
Experimental: as §1
(§3) Representative compounds were first incubated in mouse serum for an hour prior to the in vitro testing against a panel of selected gram-positive and gram-negative bacteria strains. All compounds were also pre-incubated in water for an hour prior to testing as control. Representative compounds of Formula I were incubated in human serum prior to MIC determination.

[10] = tested on: S. aureus GC 6467; details: Staphylococcus aureus
[11] = tested on: S. aureus GC 4536; details: Staphylococcus aureus
[12] = tested on: S. aureus GC 1079; details: Staphylococcus aureus
[13] = tested on: E. coli GC 2272; details: Escherichia coli
Experimental: as §1, §3

[14] = tested on: E. coli GC 4560; details: Escherichia coli
[15] = tested on: S. aureus GC 1131; details: Staphylococcus aureus
[16] = tested on: E. faecalis GC 2267; details: Enterococcus faecalis
Experimental: as §1, §2

[17] = tested on: S. typhimurium GC 2172; details: Salmonella enterica, TYPHIMURIUM
[18] = tested on: S. agalactiae GC 4564; details: Streptococcus agalactiae
[19] = tested on: E. coli GC 1073; details: Escherichia coli

Measured: MIC

CCCCC(=O)OCOC(=O)N(CC(=O)Nc1cc(N(C)C)c2c(c1O)C(=O)C1=C(O)[C@]3(O)C(=O)C(C(N)=O)=C(O)[C@@H](N(C)C)[C@@H]3C[C@@H]1C2)C(C)(C)C [Example 61, ({[(2-{[(5aR,6aS,7S,10aS)-9-(aminocarbonyl)-4,7-bis(dimethylamino)-1,8,10a,11-tetrahydroxy-10,12-dioxo-5,5a,6,6a,7,10,10a,12-octahydrotetracen-2-yl]amino}-2-oxoethyl)(tert-butyl)amino]carbonyl}oxy)methyl pentanoate]
>64 UG/ML: [4]; pre-incubation in human serum | [4]; pre-incubation in mouse serum
4 µg/mL: [3]; GC2235, pre-incubation in human serum | [13]; GC2272, pre-incubation in human serum
16 µg/mL: [3]; GC2235, pre-incubation in water
2 µg/mL: [1]; GC2242, pre-incubation in human serum | [1]; GC2242, pre-incubation in water | [6]; GC4555, pre-incubation in human serum | [6]; GC4555, pre-incubation in water | [16]; GC2267, pre-incubation in human serum | [16]; GC2267, pre-incubation in water
> 64 µg/mL: [4]; Candida albicans, GC3066 | [7]; GC6465, pre-incubation in water | [17]; pre-incubation in water
0.12 µg/mL: [5]; pre-incubation in mouse serum | [5]; pre-incubation in water
8 µg/mL: [2]; GC4559, pre-incubation in human serum | [13]; GC2272, pre-incubation in water | [19]; GC1073, pre-incubation in human serum
64 µg/mL: [2]; GC4559, pre-incubation in water | [17]; pre-incubation in human serum
32 µg/mL: [7]; GC6465, pre-incubation in human serum | [19]; GC1073, pre-incubation in water
1 µg/mL: [2]; GC4559, pre-incubation in mouse serum | [6]; GC4555, pre-incubation in mouse serum | [7]; GC6465, pre-incubation in mouse serum | [9]; GC4935, pre-incubation in human serum | [9]; GC4935, pre-incubation in water | [10]; GC6467, pre-incubation in water | [12]; GC1079, pre-incubation in water | [14]; GC4560, pre-incubation in human serum | [14]; GC4560, pre-incubation in water | [17]; pre-incubation in mouse serum
0.5 µg/mL: [1]; GC2242, pre-incubation in mouse serum | [3]; GC2235, pre-incubation in mouse serum | [8]; pre-incubation in human serum | [8]; pre-incubation in mouse serum | [8]; pre-incubation in water | [9]; GC4935, pre-incubation in mouse serum | [10]; GC6467, pre-incubation in human serum | [10]; GC6467, pre-incubation in mouse serum | [11]; GC4536, pre-incubation in human serum | [11]; GC4536, pre-incubation in mouse serum | [11]; GC4536, pre-incubation in water | [12]; GC1079, pre-incubation in human serum | [13]; GC2272, pre-incubation in mouse serum | [15]; GC1131, pre-incubation in human serum | [15]; GC1131, pre-incubation in mouse serum | [15]; GC1131, pre-incubation in water | [16]; GC2267, pre-incubation in mouse serum | [18]; GC4564, pre-incubation in human serum | [19]; GC1073, pre-incubation in mouse serum
0.25 µg/mL: [5]; pre-incubation in human serum | [12]; GC1079, pre-incubation in mouse serum | [14]; GC4560, pre-incubation in mouse serum | [18]; GC4564, pre-incubation in mouse serum | [18]; GC4564, pre-incubation in water

Source: US20070049564A1 (Wyeth, priority 2005, published 2007)
